# Source: patent US20080254993A1, “Use of abscisic acid analogs to enhance growth control” (priority 2007, published 2008)
# Key:
# Kentucky bluegrass = experiment: Greenhouse study on Kentucky bluegrass: turfgrass height, clip weight, turfgrass quality (Example 1); assay type: in vivo
# Description: Greenhouse studies were conducted at the Research Farm of Valent BioSciences Corporation (Long Grove, Ill.). Grasses were grown in pots (18 cm in diameter and 18 cm in height) filled with Promix BX (available from Premier Horticulture Inc. Quakertown, Pa.). Grass was irrigated daily by an overhead irrigation system. The irrigation system was set up with multiple Tornado Mist Spray Heads (10 GPH at 40 PSI-Wetted diameter, NDS/Raindrip, Woodland Hills, Calif.). Spray heads were 1-meter apart from each other and 75 cm above grass canopy. Grass was cut with a scissor at 2.5 cm height and fertilizer (1 g/L all purpose fertilizer 20-20-20, available from The Scotts Company, Marysville, Ohio) was applied once per week.
# (§1) Chemical solutions were prepared with distilled water. Tween 20 (0.05% v/v) was used as the surfactant when necessary. Trinexapac-ethyl (commercial product Primo Maxx, 11.3% active ingredient) was purchased from Syngenta Crop Protection Inc. (Greensboro, N.C.). ABA analogs, 8′ acetylene-ABA, acid (PBI-524), 8′ acetylene-ABA, ester (PBI-429), 8′ cyclopropane ester (PBI-696), or Tetralone, first carbon tail acetylene, ester (PBI-702), were obtained from Plant Biotechnology Institute, National Research Council of Canada (Saskatoon, Saskatchewan, Canada).
# (§2) Chemical solutions were foliar applied to the turfgrass canopy at the rate of 4-gallons/1000 square foot (or 0.163 L/m^−2) immediately after finishing the preparation of solutions. After treatment, turfgrasses were arranged in a randomized complete block experimental design. Turfgrass quality, turfgrass height or clip fresh weight was measured on assigned dates. Turfgrass quality was visually rated on a 0-9 scale based on the color, uniformity, and density of the grass with 0 as the worst and 9 as the best. Turfgrass height was measured as the distance between canopy surface and soil. Clippings were collected form each plot; all plots were cut to a uniform height.
# (§3) All experiments were randomized complete block experimental design. Data were analyzed by analysis of variance. Duncan's new multiple range tests at α=0.05 were used for mean separations.
# Kentucky bluegrass sod was purchased from Deak sod farms, Inc. (Union Grove, Wis.). Grass was grown in the greenhouse for 94 days for establishment. Turfgrass was treated with one time foliar application of 50 ppm PBI-524, PBI-429, PBI-696 or PBI-702 alone or in combination with 250 ppm trinexapac-ethyl. The turfgrass was cut every 7 days. Turfgrass quality, turfgrass height, and clip weight were measured on days 7 and 35 after treatment.
# creeping bentgrass = experiment: Golf course green field study on creeping bentgrass with PBI-429: turfgrass height, soil moisture, turf quality (Example 2); assay type: in vivo, Penncross creeping bentgrass; conditions: for Soil moisture / Turfgrass height / Turf quality: 25 ppm trinexapac-ethyl alone; for Turfgrass height (in words) / Soil moisture (in words): trinexapac-ethyl 25 ppm, PBI-429 50 ppm, alone or combined; for Turf quality: visual 0-9 scale, 9 best
# Description: Field studies were conducted at the nursery green or the practice green at Countryside golf course (Mundelein, Ill.). Both greens were sand based and growing Penncross creeping bentgrass. Grass was managed with typical Illinois golf course management practices.
# as §1, §2, §3
# Trinexapac-ethyl (25 ppm) or PBI-429 (50 ppm) were one time foliar applied alone or in combination to creeping bentgrass in the golf course green to investigate their effect on turfgrass quality, growth inhibition and soil moisture.
# tomato = experiment: Tomato plant height, growth rate and leaf number, greenhouse (Example 5); assay type: in vivo, Tomato (variety: Rutgers)
# From the text: The effect of ABA analog (PBI-429) and trinexapac-ethyl combinations on transpiration and growth inhibition of dicotyledonous (tomato) was also examined in the greenhouse condition. Tomato (variety: Rutgers) seeds were sown in 18-cell flat filled with Promix PGX (available from Premier Horticulture Inc. Quakertown, Pa.) and grown for 3 weeks to allow for germination and initial growth. Plants were then transplanted into pots (18 cm in diameter and 18 cm in height), filled with Promix BX (available from Premier Horticulture Inc. Quakertown, Pa.), and grown for one week before the chemical treatment. Plants received daily irrigation and weekly fertilizer (1 g/L all purpose fertilizer 20-20-20, available from The Scotts Company, Marysville, Ohio). During the chemical treatment, a 24 mL (4 mL/plant) solution was foliar sprayed on the tomato canopy. Leaf transpiration rates were measured using a LI-1600 Steady State Porometer (LI-Cor, Lincoln, Nebr.) at 3, 5, 7, 10, and 14 days after treatment. The leaf transpiration rate was normalized to the percentage of control plant to minimize the experimental errors caused by environmental factors. Plant height was measured at 0, 3, 5, 7, 10 and 14 days after treatment. The growth rate was calculated based on the changes of plant height in certain intervals. The plants were harvested and the leaf number was counted at 14 days after treatment.
# [1] = 7 days after treatment, 250 ppm trinexapac-ethyl alone
# [2] = 35 days after treatment, 250 ppm trinexapac-ethyl alone
# [3] = 250 ppm trinexapac-ethyl, 3 days after treatment
# [4] = 250 ppm trinexapac-ethyl, 5 days after treatment
# [5] = 250 ppm trinexapac-ethyl, 7 days after treatment
# [6] = 250 ppm trinexapac-ethyl, 10 days after treatment
# [7] = 250 ppm trinexapac-ethyl, 14 days after treatment
# [8] = 500 ppm trinexapac-ethyl, 3 days after treatment
# [9] = 500 ppm trinexapac-ethyl, 5 days after treatment
# [10] = 500 ppm trinexapac-ethyl, 7 days after treatment
# [11] = 500 ppm trinexapac-ethyl, 10 days after treatment
# [12] = 500 ppm trinexapac-ethyl, 14 days after treatment
# [13] = 1000 ppm trinexapac-ethyl, 3 days after treatment
# [14] = 1000 ppm trinexapac-ethyl, 5 days after treatment
# [15] = 1000 ppm trinexapac-ethyl, 7 days after treatment
# [16] = 1000 ppm trinexapac-ethyl, 10 days after treatment
# [17] = 1000 ppm trinexapac-ethyl, 14 days after treatment
# [18] = 2000 ppm trinexapac-ethyl, 3 days after treatment
# [19] = 2000 ppm trinexapac-ethyl, 5 days after treatment
# [20] = 2000 ppm trinexapac-ethyl, 7 days after treatment
# [21] = 2000 ppm trinexapac-ethyl, 10 days after treatment
# [22] = 2000 ppm trinexapac-ethyl, 14 days after treatment
# [23] = PBI-429 25-200 ppm, trinexapac-ethyl 250-2000 ppm, alone or combined
smiles,measurement,setting,value
"CCOC(=O)C1CC(=O)C(=C(O)C2CC2)C(=O)C1 (stereo not shown) [trinexapac-ethyl, reference compound]",Clip Weight,Kentucky bluegrass; [1],0.5 g
same,Turfgrass height,Kentucky bluegrass; [1],6.0 cm
same,Turfgrass quality,"Kentucky bluegrass; 7 days after treatment, 250 ppm trinexapac-ethyl alone, visual 0-9 scale, 9 best",6.6
same,Turfgrass height and clip weight compared to the control (in words),"Kentucky bluegrass; 7 days after treatment, trinexapac-ethyl 250 ppm, PBI-524 or PBI-429 50 ppm, alone or combined",reduced turfgrass height and clip weight compared to the control
same,Clip Weight,Kentucky bluegrass; [2],1.7 g
same,Turfgrass height,Kentucky bluegrass; [2],7.2 cm
same,Soil moisture,creeping bentgrass; 4 days after treatment,11.2%
same,Turfgrass height,creeping bentgrass; 4 days after treatment,7.3 mm
same,Turfgrass height (in words),creeping bentgrass; 4 days after treatment,did not reduce creeping bentgrass height
same,Soil moisture,creeping bentgrass; 7 days after treatment,12.7%
same,Turfgrass height,creeping bentgrass; 7 days after treatment,6.5 mm
same,Turf quality,creeping bentgrass; 7 days after treatment,7.3
same,Soil moisture (in words),creeping bentgrass; 7 days after treatment,increase soil moisture
same,Turfgrass height (in words),creeping bentgrass; 7 days after treatment,reduced turfgrass height similarly
same,Soil moisture,creeping bentgrass; 38 days after treatment,12.4%
same,Turfgrass height,creeping bentgrass; 38 days after treatment,6.0 mm
same,Turf quality,creeping bentgrass; 38 days after treatment,7.6
same,Soil moisture (in words),creeping bentgrass; 38 days after treatment,no longer effective
same,Turfgrass height (in words),creeping bentgrass; 38 days after treatment,no longer effective
same,Plant height,"tomato; 250 ppm trinexapac-ethyl, 0 days after treatment",6.4 cm
same,Growth rate,tomato; [3],1.2 cm/day
same,Plant height,tomato; [3],9.9 cm
same,Growth rate,tomato; [4],1.0 cm/day
same,Plant height,tomato; [4],11.9 cm
same,Growth rate,tomato; [5],1.6 cm/day
same,Plant height,tomato; [5],15.1 cm
same,Growth rate,tomato; [6],1.5 cm/day
same,Plant height,tomato; [6],19.6 cm
same,Growth rate,tomato; [7],1.8 cm/day
same,Leaf number,tomato; [7],11.0
same,Plant height,tomato; [7],26.9 cm
same,Plant height,"tomato; 500 ppm trinexapac-ethyl, 0 days after treatment",6.5 cm
same,Growth rate,tomato; [8],0.9 cm/day
same,Plant height,tomato; [8],9.3 cm
same,Growth rate,tomato; [9],0.8 cm/day
same,Plant height,tomato; [9],10.9 cm
same,Growth rate,tomato; [10],1.2 cm/day
same,Plant height,tomato; [10],13.3 cm
same,Growth rate,tomato; [11],1.4 cm/day
same,Plant height,tomato; [11],17.4 cm
same,Growth rate,tomato; [12],1.8 cm/day
same,Leaf number,tomato; [12],11.0
same,Plant height,tomato; [12],24.4 cm
same,Plant height,"tomato; 1000 ppm trinexapac-ethyl, 0 days after treatment",6.5 cm
same,Growth rate,tomato; [13],0.7 cm/day
same,Plant height,tomato; [13],8.9 cm
same,Growth rate,tomato; [14],0.7 cm/day
same,Plant height,tomato; [14],10.3 cm
same,Growth rate,tomato; [15],1.0 cm/day
same,Plant height,tomato; [15],12.3 cm
same,Growth rate,tomato; [16],1.2 cm/day
same,Plant height,tomato; [16],15.8 cm
same,Growth rate,tomato; [17],1.8 cm/day
same,Leaf number,tomato; [17],11.0
same,Plant height,tomato; [17],22.8 cm
same,Plant height,"tomato; 2000 ppm trinexapac-ethyl, 0 days after treatment",6.7 cm
same,Growth rate,tomato; [18],0.6 cm/day
same,Plant height,tomato; [18],7.9 cm
same,Growth rate,tomato; [19],0.6 cm/day
same,Plant height,tomato; [19],9.1 cm
same,Growth rate,tomato; [20],0.8 cm/day
same,Plant height,tomato; [20],10.7 cm
same,Growth rate,tomato; [21],1.0 cm/day
same,Plant height,tomato; [21],13.6 cm
same,Growth rate,tomato; [22],1.2 cm/day
same,Leaf number,tomato; [22],10.8
same,Plant height,tomato; [22],18.3 cm
same,Tomato leaf number (in words),"tomato; 14 days after treatment, PBI-429 25-200 ppm, trinexapac-ethyl 250-2000 ppm, alone or combined",did not change the tomato leaf number
same,Tomato growth rate in terms of plant height (in words),tomato; [23],inhibited growth rate
same,Tomato plant height (in words),tomato; [23],decreased tomato plant height
